Reference: paper PMC6199744, “Development of Chemical Proteomics for the Folateome and Analysis of the Kinetoplastid Folateome” (ACS Infectious Diseases, 2018)

Tested on: L. major lysate proteins
Assay: Multitargeted bead mixture chemoproteomics, single concentration competition, proteome-wide
Assay type: binding
Settings: for fold change: vehicle control = 1

SMILES: Nc1nc2[nH]cc(CCc3ccc(C(=O)N[C@@H](CCC(=O)O)C(=O)O)cc3)c2c(=O)[nH]1 [PTX, pemetrexed]
- fold change (protein LMJF.15.0040 HY[…], CONSERVED (Possible lysine decarboxylase, putative)): 0.69
- fold change vs vehicle control (protein LMJF.15.0690 HY[…], CONSERVED): 1.2
- fold change (protein LMJF.15.1010 GLUTAMATE DEHYDROGENASE): 1
- fold change (protein LMJF.15.1190 HY[…], CONSERVED (cyclic nucleotide-binding domain containing protein, putative)): 0.98
- fold change vs vehicle control (protein LMJF.16.0520 HY[…], CONSERVED): 0.76
- fold change vs vehicle control (protein LMJF.16.0540 ASPARTATE CARBAMOYLTRANSFERASE, PUTATIVE): 0.92
- fold change relative to vehicle control (protein LMJF.16.0760, TRANSALDOLASE, PUTATIVE): 1.18
- fold change vs vehicle control (protein LMJF.16.0940 DYNEIN LIGHT CHAIN, PUTATIVE): 1.1
- fold change relative to vehicle control (protein LMJF.16.1180, COATOMER DELTA SUBUNIT-LIKE PROTEIN): 1.15
- fold change relative to vehicle control (protein LMJF.16.1320, CYTOCHROME C, PUTATIVE): 1.56
- fold change relative to vehicle control (protein LMJF.16.1420, HY[…], CONSERVED): 1.13
- fold change relative to vehicle control (protein LMJF.17.0081, […] 1-ALPHA): 1.06
- fold change relative to vehicle control (protein LMJF.18.0270, GLYCOGEN SYNTHASE KINASE, PUTATIVE): 0.92
- fold change (protein LMJF.18.0580 P[…]-COA HYDRATASE, PUTATIVE): 0.93
- fold change relative to vehicle control (protein LMJF.18.0680, CITRATE SYNTHASE, PUTATIVE): 1.08
- fold change vs vehicle control (protein LMJF.18.1010 DYNEIN LIGHT CHAIN 2B, CYTOPLASMIC, PUTATIVE): 1.03
- fold change vs vehicle control (protein LMJF.18.1210 PROLYL-TRNA SYNTHETASE, PUTATIVE,BI[…]-TRNA SYNTHETASE, PUTATIVE): 0.97
- fold change vs vehicle control (protein LMJF.18.1370 HEAT SHOCK PROTEIN, PUTATIVE): 1.02
- fold change (protein LMJF.19.0200 ADP,ATP CARRIER PROTEIN 1, MIT[…], PUTATIVE): 1.02
- fold change vs vehicle control (protein LMJF.19.1120 […]-ATP-ASE SUBUNIT, PUTATIVE): 0.91
- fold change vs vehicle control (protein LMJF.19.1160 HY[…], CONSERVED): 0.92
- fold change vs vehicle control (protein LMJF.19.1560 INOSINE-5'-MONOPHOSPHATE DEHYDROGENASE): 0.92
- fold change relative to vehicle control (protein LMJF.19.1620, POTASSIUM VOLTAGE-GATED CHANNEL, PUTATIVE): 1.13
- fold change vs vehicle control (protein LMJF.20.1280 SMALL MYR[…] 4, PUTATIVE): 0.89
- fold change (protein LMJF.21.0810 METHIONYL-TRNA SYNTHETASE, PUTATIVE): 0.98
- fold change (protein LMJF.21.1450 ARGININE N-METHYLTRANSFERASE, TYPE II, PUTATIVE): 0.98
- fold change vs vehicle control (protein LMJF.21.1830 […] 5 SUBUNIT, PUTATIVE,20S […] ALPHA 5, (PUTATIVE)): 0.96
- fold change (protein LMJF.22.0230 AMINO ACID PERMEASE, PUTATIVE): 1.09
- fold change vs vehicle control (protein LMJF.22.0570 […] SUBUNIT 1, PUTATIVE): 1.04
- fold change vs vehicle control (protein LMJF.22.0730 HY[…], CONSERVED): 0.96
- fold change (protein LMJF.22.0770 NADH-CYTOCHROME B5 REDUCTASE, PUTATIVE): 0.82
- fold change relative to vehicle control (protein LMJF.23.0020, HY[…], CONSERVED): 1.35
- fold change relative to vehicle control (protein LMJF.23.0040, PEROXIDOXIN): 0.99
- fold change relative to vehicle control (protein LMJF.23.0080, HY[…], CONSERVED): 0.97
- fold change (protein LMJF.23.0210 ATP-BINDING CASSETTE PROTEIN SUBFAMILY C, MEMBER 1, PUTATIVE): 0.87
- fold change (protein LMJF.23.0370 CYTOCHROME C OXIDASE SUBUNIT 10, PUTATIVE): 0.9
- fold change relative to vehicle control (protein LMJF.23.0540, ACETYL-COA SYNTHETASE, PUTATIVE): 1.05
- fold change vs vehicle control (protein LMJF.23.0560 KINESIN, PUTATIVE): 1.12
- fold change vs vehicle control (protein LMJF.23.1410 HY[…], CONSERVED): 0.97
- fold change relative to vehicle control (protein LMJF.24.0070, HY[…], CONSERVED): 1.03
- fold change (protein LMJF.24.0140 ANKYRIN/TPR REPEAT PROTEIN): 0.86
- fold change (protein LMJF.24.0400 HY[…], CONSERVED (TPR repeat, putative)): 0.87
- fold change relative to vehicle control (protein LMJF.24.1510, IGE-DEPENDENT HISTAMINE-RELEASING FACTOR, PUTATIVE): 1.15
- fold change relative to vehicle control (protein LMJF.24.1630, SUCCINATE DEHYDROGENASE FLAVOPROTEIN, PUTATIVE): 0.98
- fold change relative to vehicle control (protein LMJF.24.2060, TRANSKETOLASE): 0.96
- fold change relative to vehicle control (protein LMJF.25.0010, BETA GALACTOFURANOSYL TRANSFERASE): 1.17
- fold change relative to vehicle control (protein LMJF.25.0910, C[…]): 1.55
- fold change vs vehicle control (protein LMJF.25.1130 CYTOCHROME C OXIDASE VII, PUTATIVE): 0.92
- fold change relative to vehicle control (protein LMJF.25.1180, ATPASE BETA SUBUNIT, PUTATIVE): 1
- fold change vs vehicle control (protein LMJF.25.1610 HY[…], CONSERVED): 0.99
- fold change vs vehicle control (protein LMJF.25.1620 HY[…], CONSERVED): 1.01
- fold change (protein LMJF.25.2340 SERINE/THREONINE-PROTEIN KINASE, PUTATIVE,PROTEIN KINASE, PUTATIVE): 0.74
- fold change relative to vehicle control (protein LMJF.26.0630, HY[…], CONSERVED): 0.9
- fold change vs vehicle control (protein LMJF.26.1240 HEAT SHOCK PROTEIN 70-RELATED PROTEIN): 0.88
- fold change (protein LMJF.26.1710 CYTOCHROME C OXIDASE SUBUNIT V, PUTATIVE): 0.94
- fold change vs vehicle control (protein LMJF.26.2480 CDP-DIACYLGLYCEROL--INOSITOL 3-PHOSPHATIDYLTRANSFERASE, PUTATIVE): 1.06
- fold change vs vehicle control (protein LMJF.26.2560 HY[…], CONSERVED): 0.66
- fold change vs vehicle control (protein LMJF.27.0190 […] 7 SUBUNIT, PUTATIVE): 0.91
- fold change (protein LMJF.27.0650 HY[…], CONSERVED): 0.99
- fold change (protein LMJF.27.0700 HY[…], CONSERVED): 0.86
- fold change vs vehicle control (protein LMJF.27.0760 GTP-binding protein homologue): 1.01
- fold change vs vehicle control (protein LMJF.27.1060 CYSTEINE DESULFURASE, PUTATIVE): 0.96
- fold change vs vehicle control (protein LMJF.27.1110 MIT[…] BINDING PROTEIN 1,GBP21, MRP1): 1.06
- fold change (protein LMJF.27.1250 HY[…], CONSERVED (Serine-threonine kinase receptor-associated protein, putative)): 0.88
- fold change relative to vehicle control (protein LMJF.27.1390, 60S ACIDIC RIBOSOMAL SUBUNIT PROTEIN, PUTATIVE): 1.07
- fold change (protein LMJF.27.1460 […]-ATP-ASE SUBUNIT 3, PUTATIVE): 0.89
